Assay in all cases: standard disc-plate method, zone of inhibition
Holding throughout (assay type): cell-based

For one experiment, the system named is Escherichia coli. The settings on record: Table IV, read-out: Zone of Inhibition (diameter in mm); for zone of inhibition at 100 µg/mL: 0.1 mg./ml.; for zone of inhibition at 1000 µg/mL: 1.0 mg./ml. The text has this:
(§1) The in vitro antimicrobial activity of the 3-halo cephalosporins is illustrated by the data in the following tables. Table I contains the antimicrobial activity for 7-[2-(2-thienyl)acetamido]-3-chloro-3-cephem-4-carboxylic acid obtained in the standard Disc-plate method. The numerical values are the diameter in millimeters of the zones of inhibition observed with the named organisms.
(§2) In Table IV below, the in vitro antimicrobial activity of 7-[2-(2-thienyl)acetamido]-3-bromo-3-cephem-4-carboxylic acid is presented for several illustrative microorganisms. The data presented were obtained in the standard disc-plate method with the numerical values recording the diameter in millimeters of the zones of inhibition observed with the named microorganisms.

The test system of the next experiment is Sarcina lutea. As to conditions: Micrococcus luteus, Table IV, read-out: Zone of Inhibition (diameter in mm).
Source text: as §1, §2

A further experiment relates to Staphylococcus aureus. As to conditions: Table IV, read-out: Zone of Inhibition (diameter in mm).
Source text: as §1, §2

Like-named read-outs stand apart in the source and are kept apart here.

As for `O=C(Cc1cccs1)NC1C(=O)N2C(C(=O)O)=C(Br)CS[C@H]12` (some centres unmarked) [7-[2-(2-Thienyl)acetamido]-3-bromo-3-cephem-4-carboxylic acid], the zone of inhibition (commonly the extent of the growth-free halo in a diffusion test) at 10 µg/mL in the experiment on Escherichia coli (0.01 mg./ml., Synthetic medium, hazy zone (h)) was determined as 11 mm; in the experiment on Sarcina lutea (0.01 mg./ml.), 17 mm; in the experiment with Staphylococcus aureus (0.01 mg./ml.), 22 mm. Also, the zone of inhibition at 100 µg/mL with Escherichia coli (Synthetic medium) came to 18 mm; with Escherichia coli it was 14 mm; with Sarcina lutea (0.1 mg./ml.), 33 mm; in the experiment with Staphylococcus aureus (0.1 mg./ml.) it was 25 mm. Besides, the zone of inhibition at 1000 µg/mL was determined as 27 mm in the experiment on Escherichia coli (Synthetic medium), 23 mm in the experiment with Escherichia coli, 32 mm in the experiment with Sarcina lutea (1.0 mg./ml.) and 27 mm with Staphylococcus aureus (1.0 mg./ml.).
